Laboratory results published in publication PMC9504289 (Pharmaceuticals, 2022).
“And” between values parts separate entries of the source, which are not always exact repeats. Identical values can stand only once. Like-named read-outs stand apart in the source and are kept apart here.

Columns and labels:
SARS-CoV-2 [1] = conditions: read-out: antiviral activity IC50 confirmed in a live viral or pseudoviral assay; cited from earlier work
HCoV-NL63 S1 – hACE2 = HCoV-NL63 S1 – hACE2 (Human coronavirus NL63, UniProt Q6Q1S2); experiment: biochemical; type: binding; conditions: for IC50: Inhibition of HCoV-NL63 S1 – hACE2 Binding: IC50
HCoV-NL63 S1 – hACE2, sequence (Q6Q1S2 19-717 limits assumed): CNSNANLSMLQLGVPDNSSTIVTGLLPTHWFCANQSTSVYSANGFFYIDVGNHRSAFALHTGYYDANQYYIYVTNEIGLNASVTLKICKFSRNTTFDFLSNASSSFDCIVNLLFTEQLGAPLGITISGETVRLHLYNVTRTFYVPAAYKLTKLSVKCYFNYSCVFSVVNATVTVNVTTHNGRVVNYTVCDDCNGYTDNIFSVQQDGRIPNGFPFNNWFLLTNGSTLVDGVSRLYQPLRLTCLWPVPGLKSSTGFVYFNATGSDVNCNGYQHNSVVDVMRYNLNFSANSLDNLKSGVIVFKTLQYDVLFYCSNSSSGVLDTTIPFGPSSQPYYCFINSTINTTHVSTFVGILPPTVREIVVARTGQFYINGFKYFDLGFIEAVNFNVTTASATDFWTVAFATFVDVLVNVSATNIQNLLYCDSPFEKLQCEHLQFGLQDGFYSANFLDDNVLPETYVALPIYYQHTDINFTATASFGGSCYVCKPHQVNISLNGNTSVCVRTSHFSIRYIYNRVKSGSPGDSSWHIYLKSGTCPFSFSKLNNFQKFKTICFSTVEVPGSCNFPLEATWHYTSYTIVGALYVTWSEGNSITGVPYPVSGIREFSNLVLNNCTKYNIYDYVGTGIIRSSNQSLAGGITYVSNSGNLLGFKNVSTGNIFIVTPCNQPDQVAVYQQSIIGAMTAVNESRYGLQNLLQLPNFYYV

[2] = tested on: SARS-CoV-2 pseudovirus (orig. strain); experiment: microbe, parasite or virus in culture; type: cell-based; conditions: Severe acute respiratory syndrome-related coronavirus, HEK-293T, read-out: Inhibition of SARS-CoV-2 pseudovirus entry (orig. strain) IC50
[3] = tested on: SARS-CoV-2 pseudovirus (delta VoC); experiment: microbe, parasite or virus in culture; type: cell-based
HEK293T cells = tested on: HEK293T cells
Description: Figure 8 Cytotoxicity assessment. MTS cytotoxicity assay (HEK293T cells) using the same conditions as for the activity assessment (Figure 7). Data (symbols) are average ± SD of three experiments in duplicates; TC50 values shown in the legend were obtained from fitting with standard sigmoid curves as before.

SARS-CoV-2-S = conditions: read-out: KD for binding to SARS-CoV-2-S; cited from earlier work
SARS-CoV-2 [4] = conditions: read-out: IC50 for SARS-CoV-2 infection inhibition; cited from earlier work
[5] = Severe acute respiratory syndrome-related coronavirus, HEK-293T, hACE2-expressing HEK293T, read-out: Inhibition of SARS-CoV-2 pseudovirus entry (delta VoC) IC50
[6] = same conditions as pseudovirus assay

| Molecule | IC50 (SARS-CoV-2 [1]) [µM] | IC50 (HCoV-NL63 S1 – hACE2) | IC50 ([2]; hACE2-expressing HEK293T) [µM] | IC50 [3, 5] [µM] | Cytotoxicity (HEK293T cells, MTS): TC50 (HEK293T cells; [6]) | also measured |
| --- | --- | --- | --- | --- | --- | --- |
| C=C(C)[C@@H]1CCC(C)=C[C@H]1c1c(O)cc(CCCCC)c(C(=O)O)c1O [cannabidiolic acid] | < 30 | – | – | – | – | – |
| Nc1c(/N=N/c2ccc([N+](=O)[O-])cc2)c(S(=O)(=O)O)cc2cc(S(=O)(=O)O)c(/N=N/c3ccccc3)c(O)c12 [Naphthol blue black, naphthol blue black] | – | 58.7 µM | > 500 | 174 | – | Cytotoxicity (HEK293T cells, MTS): TC50 (HEK293T cells; human): > 1000.00 µM |
| CCCCCc1cc(O)c(C/C=C(\C)CCC=C(C)C)c(O)c1C(=O)O [cannabigerolic acid] | < 30 | – | – | – | – | – |
| O=C(Nc1ccc(-c2ccc(C(=O)Nc3cccc4cc(S(=O)(=O)O)ccc34)cc2)cc1)c1ccc([N+](=O)[O-])cc1 [DRI-C23041] | < 30 | 4.16 µM | 4.71 | 5.42 | > 1000.00 µM | loss of activity compared to the SARS-CoV assays (HCoV-NL63 S1 – hACE2): 2–5 fold; IC50 ([3]; read-out: Inhibition of SARS-CoV-2 pseudovirus entry (delta VoC) IC50, hACE2-expressing HEK293T): 6.31 µM |
| O=C(Nc1ccc(-c2ccc(C(=O)Nc3ccc(S(=O)(=O)O)c4cccc(S(=O)(=O)O)c34)cc2)cc1)c1ccc([N+](=O)[O-])cc1 [DRI-C2105041] | – | – | 217 | 26.9 | > 1000.00 µM | – |
| O=S(=O)(O)c1ccc(/N=N/c2c(O)ccc3cc(S(=O)(=O)O)ccc23)cc1 [Sunset yellow, sunset yellow FCF] | – | > 500 µM | > 500 | > 500 | – | Cytotoxicity (HEK293T cells, MTS): TC50 (HEK293T cells; human): > 1000.00 µM |
| O=C(Nc1ccc(-c2ccc(C(=O)Nc3cccc4c(S(=O)(=O)O)cccc34)cc2)cc1)c1ccc([N+](=O)[O-])cc1 [DRI-C24041] | – | 6.54 µM | 6.58 | 7.76 | > 600 µM and 617.90 µM | loss of activity compared to the SARS-CoV assays (HCoV-NL63 S1 – hACE2): 2–5 fold |
| Nc1ccc2cc(S(=O)(=O)O)cc(O)c2c1/N=N/c1ccc(-c2ccc(/N=N/c3c(N)ccc4cc(S(=O)(=O)O)cc(O)c34)cc2)cc1 [Direct violet 1, direct violet 1] | < 30 | < 3 µM and 2.29 µM | 35.8 | 2.97 | – | Cytotoxicity (HEK293T cells, MTS): TC50 (HEK293T cells; same conditions as pseudovirus assay, listed as DV1): 110 µM and 110.10 µM |
| Cc1cc(-c2ccc(/N=N/c3ccc4c(S(=O)(=O)O)cc(S(=O)(=O)O)c(N)c4c3O)c(C)c2)ccc1/N=N/c1ccc2c(S(=O)(=O)O)cc(S(=O)(=O)O)c(N)c2c1O [Evans blue] | < 30 | < 3 µM and 2.6 µM | – | – | – | IC50 [2]: 16.6 µM; IC50 ([3]; Severe acute respiratory syndrome-related coronavirus, HEK-293T, read-out: Inhibition of SARS-CoV-2 pseudovirus entry (delta VoC) IC50, hACE2-expressing HEK293T): 25.4 µM; Cytotoxicity (HEK293T cells, MTS): TC50 (HEK293T cells; same conditions as pseudovirus assay, listed as EvBl): 439 µM and 439.20 µM; Kd (SARS-CoV-2-S): 2.2 µM; IC50 (SARS-CoV-2 [4]): 28.1 µM |
| Nc1c(/N=N/c2ccc(-c3ccc(/N=N/c4cc(S(=O)(=O)O)c5ccccc5c4N)cc3)cc2)cc(S(=O)(=O)O)c2ccccc12 [Congo red] | < 30 | < 3 µM and 2.26 µM | 20.3 | 3.07 | – | Cytotoxicity (HEK293T cells, MTS): TC50 (HEK293T cells; same conditions as pseudovirus assay, listed as CgRd): 130 µM and 130.40 µM |
| verteporfin | < 30 | – | – | – | – | – |
| O=C(Nc1ccc2cc(C(=O)Nc3cccc4cccc(S(=O)(=O)O)c34)ccc2c1)c1ccc([N+](=O)[O-])cc1 [DRI-C41041] | – | – | > 500 | 27.7 | > 1000.00 µM | – |
